According to patent US7960614B2, “Plant transformation and selection” (Arborgen, LLC, priority 2003, dated 2011):

Key:
[1] = test system: 10 different loblolly and hybrid pine lines; assay: Growth on casein hydrolysate or mixture AA4 with 5-methyltryptophan (FIG. 11); assay type: cell-based, Pinus taeda and hybrid pine; settings: 0, 3, 10, or 30 mg/L 5-methyltryptophan
From the text: In another experiment, 10 different loblolly and hybrid pine lines were used, from eight genetically diverse families. These lines were initiated and cryopreserved as described in Example 26, and were placed into uniform suspension cultures and plated onto the respective media treatments as described in Example 26. Media for the experiment comprised DCR2 maintenance media containing either 0.5 g/L casein hydrolysate, 0.5 g/L of the derived mixture AA4 having the proportions shown in Table 24, or lacking both casein and the amino acid mixtures, and each of these treatments were provided with each of 0, 3, 10, or 30 mg/L treatments of 5-methyltryptophan (5MT). The vertical axis is the total weight increase in grams after the respective period.

loblolly cell lines [2] = assay: asa2 (pWVC33) selection on Geneticin, 5MT or AMT, PCR check (Example 32); assay type: cell-based, Pinus taeda; settings: Geneticin 15 mg/L with casein hydrolysate, 5MT or AMT 30 mg/L with AA4
Method: Two loblolly cell lines were prepared for transformation using the method of Example 28, and co-cultivated with Agrobacterium tumefaciens transformed with pWVC33 (FIG. 7) as described in Example 28. Following eradication of Agrobacterium, each cell line was equally divided onto 6 plates each of 5 different selection media containing either casein hydrolysate and Geneticin at 15 mg/L, or amino acid mixture AA4 and either 5-methyltryptophan (5MT) at 30 or 50 mg/L or […] (AMT) at 30 or 50 mg/L. The results are show in FIG. 12. Putatively transformed sublines grow on Geneticin-containing plates and on both selection treatments where 30 mg/L of the methylated tryptophan selective analog was incorporated.

loblolly cell lines [3] = assay: pWVC23 transformants selected on Ally, checked on Geneticin and by PCR (Example 30); assay type: cell-based, Pinus taeda; settings: Ally at either 50 or 100 nM
Method: Two loblolly cell lines were prepared for transformation using the same methods of Example 28, and co-cultivated with Agrobacterium tumefaciens transformed with pWVC23(FIG. 3), also as described in Example 28. Following eradication of Agrobacterium, each cell line was equally divided onto selection medium containing either Geneticin at 15 mg/L or Ally at either 50 or 100 nM. After putatively transformed sublines were grown to a sufficient size, nine sublines grown on Ally-containing media were transferred to Geneticin-containing media to check transformation status rapidly before PCR. 100% of these lines are able to grow on Geneticin-containing media. Five of these lines were then checked with PCR using the six primer pairs described in Example 28. 100% of these lines were confirmed postive transformants by PCR.

[4] = test system: 13 loblolly and hybrid pine lines; assay: Growth on synthetic casein hydrolysate mixtures with Ally (FIG. 10); assay type: cell-based, Pinus taeda and hybrid pine; settings: media with amino acid mixture in which branched chain amino acids are absent; Ally 0, 10, 30, or 50 mM
Method: The synthetic mixtures were tested in 13 loblolly and hybrid pine lines from 7 genetically diverse families. These lines were initiated and cryopreserved as described in Example 26, and were placed into uniform suspension cultures and plated onto the respective media treatments as described in Example 27. Media for the experiment comprised DCR2 maintenance media containing either 0.5 g/L casein hydrolysate, 0.5 g/L of one of the derived mixtures having the proportions shown in Table 24, or lacking both casein and the amino acid mixtures, and each of these treatments were provided with each of 0, 10, 30, or 50 mM treatments of the herbicide Ally® (commercially available from Dupont™).

loblolly pine cell lines = assay: als/Ally selection on medium without casein hydrolysate, PCR verification (Example 28); assay type: cell-based, Pinus taeda; settings: selection on 50 nM or 100 nm Ally, no casein hydrolysate; seven sublines tested by PCR
From the text: In this example, five loblolly pine cell lines from four elite families were transformed with plasmids containing the als selectable marker, and selection was done on a sulfonylurea-containing selection medium modified to exclude casein hydrolysate. The five pine cell lines were initiated as described in Example 26, except that one of the five lines was an elite loblolly cross grown in an International Paper seed orchard in Georgia. The lines were cryopreserved, retrieved, and cultured as uniform suspensions as described in Example 26.
To prepare for gene transfer, polyester membrane supports were sterilized by autoclaving and placed in separate sterile Buchner funnels, and for each of six replicate plates per cell line, one to three milliliters of pine embryogenic suspension was pipetted onto each support such that the embryogenic tissue was evenly distributed. The liquid medium was suctioned from the tissues and each support bearing the embryogenic tissue was placed on gelled DCR3 preparation medium for Agrobacterium inoculation according to the methods described in U.S. Patent Publication No. 20020100083. […]

| Structure (SMILES) | reduction in growth, FIG. 11 [1] | False positive Frequency (loblolly cell lines [2]) | PCR confirmed positive (number of lines) (loblolly cell lines [2]; of 12, 8, 22 lines PCR tested) | lines confirmed positive transformants by PCR (loblolly cell lines [3]; five lines checked) [%] | Ally-selected sublines able to grow on Geneticin-containing media (loblolly cell lines [3]; nine sublines) [%] | growth of cells, FIG. 10 [4] | false positive rate (loblolly pine cell lines) [%] |
| --- | --- | --- | --- | --- | --- | --- | --- |
| Cc1ccc2[nH]cc(C[C@H](N)C(=O)O)c2c1 [5MT30, 5-methyltryptophan] | only in the absence of tryptophan is it possible to obtain satisfactory reduction in growth | 0.13 | 7 | – | – | – | – |
| COC(=O)c1ccccc1S(=O)(=O)NC(=O)Nc1nc(C)nc(OC)n1 [Ally] | – | – | – | 100 | 100 | growth is retarded or stopped to a significant degree | 14 |
